Converted amounts (≈) assume the structure as drawn. Positions of bridges follow the written chain, without caps; N, C: chain ends. Non-standard residues stand in square brackets, D forms with d. Residues, ends and D or L forms follow the SMILES beside them. *: point of attachment. X3 = CCCCCCCCCCCC(O[C@@H]1O[C@@H](C)[C@H](O)[C@@H](O)[C@H]1O)C(O)C(=O)*; X2 = OC[C@H]1O[C@@H](*)[C@@H](O)[C@@H](O)[C@@H]1O; NMeT = CN[C@H](C(=O)O)[C@@H](C)O; X1 = CCCCCCCCCCCC(O)C(O)C(=O)*; Dhb = C/C=C(\N)C(=O)O
Key:
Type in all cases: functional
[1] = system: Candida albicans; experiment: Antifungal activity against Candida albicans SC 5314
[2] = system: Cryptococcus neoformans; experiment: Antifungal activity against Cryptococcus neoformans ATCC 34543
[3] = system: Candida albicans; experiment: Antifungal activity against Candida albicans ATCC 90028
[4] = system: Candida tropicalis; experiment: Antifungal activity against Candida tropicalis ATCC 750
[5] = system: Candida parapsilosis; experiment: Antifungal activity against Candida parapsilosis ATCC 90018; details: Lodderomyces parapsilosis
[6] = system: Nakaseomyces glabratus; experiment: Antifungal activity against Candida glabrata DSM 11950
[7] = system: Candida tropicalis; experiment: Antifungal activity against Candida tropicalis ATCC 90874
[8] = system: Candida albicans; experiment: Antifungal activity against Candida albicans ATCC 24433
[9] = system: Cryptococcus neoformans; experiment: Antifungal activity against Cryptococcus neoformans DSM 6973
[10] = system: Pichia kudriavzevii; experiment: Antifungal activity against Candida krusei ATCC 90878
[11] = system: Cryptococcus neoformans; experiment: Antifungal activity against Cryptococcus neoformans CBS 6955
[12] = system: Cryptococcus neoformans; experiment: Antifungal activity against Cryptococcus neoformans ATCC 90112
[13] = system: Pichia kudriavzevii; experiment: Antifungal activity against Candida krusei ATCC 6258
[14] = system: Candida albicans; experiment: Antifungal activity against Candida albicans ATCC 44374
[15] = system: Nakaseomyces glabratus; experiment: Antifungal activity against Candida glabrata ATCC 90030
[16] = system: Candida parapsilosis; experiment: Antifungal activity against Candida parapsilosis ATCC 22019; details: Lodderomyces parapsilosis

With C/C=C1\NC(=O)[C@H](Cc2ccc(O)cc2)NC(=O)[C@H]([C@@H](C)O)NC(=O)[C@@H](NC(=O)[C@@H](NC(=O)C(O)C(CCCCCCCCCCC)O[C@@H]2O[C@@H](C)[C@H](O)[C@@H](O)[C@H]2O)[C@@H](C)O)[C@@H](C)OC(=O)[C@H](CCC(N)=O)NC(=O)[C@H]([C@@H](C)O[C@@H]2O[C@H](CO)[C@@H](O)[C@H](O)[C@@H]2O)N(C)C(=O)CNC(=O)[C@H](CCC(N)=O)NC1=O (some centres undefined) (X3-TTTY[Dhb]QG[NMeT](X2)Q; ester 2-C) the MFC [1] was 8 µg/mL (≈ 5.23 µM), the MIC [1] was 8 µg/mL (≈ 5.23 µM) and the MFC [2] was 8 µg/mL (≈ 5.23 µM). For the same compound, the MIC [2] was 8 µg/mL (≈ 5.23 µM), the MFC [3] was 8 µg/mL (≈ 5.23 µM) and the MIC [3] was 8 µg/mL (≈ 5.23 µM). The MFC [4] was 16 µg/mL (≈ 10.5 µM), the MIC [4] was 16 µg/mL (≈ 10.5 µM) and the MFC [5] was greater than 16 µg/mL. For the same compound, the MIC [5] was 16 µg/mL (≈ 10.5 µM), the MFC [6] was 16 µg/mL (≈ 10.5 µM) and the MIC [6] was 16 µg/mL (≈ 10.5 µM). The MFC [7] was 16 µg/mL (≈ 10.5 µM), the MIC [7] was 8 µg/mL (≈ 5.23 µM) and the MFC [8] was 16 µg/mL (≈ 10.5 µM). It also gave an MIC [8] of 16 µg/mL (≈ 10.5 µM), an MFC [9] of 8 µg/mL (≈ 5.23 µM) and an MIC [9] of 8 µg/mL (≈ 5.23 µM). For the same compound, the MFC [10] was 16 µg/mL (≈ 10.5 µM), the MIC [10] was 16 µg/mL (≈ 10.5 µM) and the MFC [11] was 8 µg/mL (≈ 5.23 µM). For the same compound, the MIC [11] was 8 µg/mL (≈ 5.23 µM), the MFC [12] was 8 µg/mL (≈ 5.23 µM) and the MIC [12] was 8 µg/mL (≈ 5.23 µM). It also gave an MFC [13] of 16 µg/mL (≈ 10.5 µM), an MIC [13] of 8 µg/mL (≈ 5.23 µM) and an MFC [14] of 16 µg/mL (≈ 10.5 µM). It also gave an MIC [14] of 8 µg/mL (≈ 5.23 µM), an MFC [15] of 16 µg/mL (≈ 10.5 µM) and an MIC [15] of 16 µg/mL (≈ 10.5 µM). It also gave an MFC [16] of 16 µg/mL (≈ 10.5 µM) and an MIC [16] of 8 µg/mL (≈ 5.23 µM).
Compound C/C=C1\NC(=O)[C@H](Cc2ccc(O)cc2)NC(=O)[C@H]([C@@H](C)O)NC(=O)[C@@H](NC(=O)[C@@H](NC(=O)C(O)C(O)CCCCCCCCCCC)[C@@H](C)O)[C@@H](C)OC(=O)[C@H](CCC(N)=O)NC(=O)[C@H]([C@@H](C)O[C@@H]2O[C@H](CO)[C@@H](O)[C@H](O)[C@@H]2O)N(C)C(=O)CNC(=O)[C@H](CCC(N)=O)NC1=O (some centres undefined) [HASSALLIDIN A] (X1-TTTY[Dhb]QG[NMeT](X2)Q; ester 2-C) has an MFC [1] of 8 µg/mL (≈ 5.79 µM), an MIC [1] of 4 µg/mL (≈ 2.89 µM) and an MFC [2] of 8 µg/mL (≈ 5.79 µM). The MIC [2] was 4 µg/mL (≈ 2.89 µM), the MFC [3] was 4 µg/mL (≈ 2.89 µM) and the MIC [3] was 4 µg/mL (≈ 2.89 µM). It also gave an MFC [4] of 4 µg/mL (≈ 2.89 µM), an MIC [4] of 4 µg/mL (≈ 2.89 µM) and an MFC [5] of 16 µg/mL (≈ 11.6 µM). It also gave an MIC [5] of 8 µg/mL (≈ 5.79 µM), an MFC [6] of 8 µg/mL (≈ 5.79 µM) and an MIC [6] of 8 µg/mL (≈ 5.79 µM). It also gave an MFC [7] of 8 µg/mL (≈ 5.79 µM), an MIC [7] of 8 µg/mL (≈ 5.79 µM) and an MFC [8] of 4 µg/mL (≈ 2.89 µM). It also gave an MIC [8] of 4 µg/mL (≈ 2.89 µM), an MFC [9] of 8 µg/mL (≈ 5.79 µM) and an MIC [9] of 4 µg/mL (≈ 2.89 µM). It also gave an MFC [10] of 8 µg/mL (≈ 5.79 µM), an MIC [10] of 8 µg/mL (≈ 5.79 µM) and an MFC [11] of 8 µg/mL (≈ 5.79 µM). For the same compound, the MIC [11] was 4 µg/mL (≈ 2.89 µM), the MFC [12] was 8 µg/mL (≈ 5.79 µM) and the MIC [12] was 4 µg/mL (≈ 2.89 µM). For the same compound, the MFC [13] was 8 µg/mL (≈ 5.79 µM), the MIC [13] was 8 µg/mL (≈ 5.79 µM) and the MFC [14] was 4 µg/mL (≈ 2.89 µM). It also gave an MIC [14] of 4 µg/mL (≈ 2.89 µM), an MFC [15] of 8 µg/mL (≈ 5.79 µM) and an MIC [15] of 8 µg/mL (≈ 5.79 µM). For the same compound, the MFC [16] was 8 µg/mL (≈ 5.79 µM) and the MIC [16] was 8 µg/mL (≈ 5.79 µM).

Source: ChEMBL document CHEMBL1146038, “Hassallidin B--second antifungal member of the Hassallidin family” (2006)
